Four molecules from patent US11807881B2, “Polypeptide, fusion polypeptide, and antibiotic against gram-negative bacteria comprising same” (priority 2020, dated 2023) can be followed below.

For one assay, the system named is gram negative bacteria. Description: MIC change of polymyxin-based antibiotics with LNT102, all strains of Table 5. The settings on record: LNT102 endolysin 1 μM; maximum over the strains of Table 5. It counts as cell-based, P. aeruginosa, A. baumannii, E. coli. The procedure:
(§1) A synergy effect by combination treatment of a polymyxin-based antibiotic having a mechanism acting on the cell membrane of bacterium and endolysin LNT102 purified in Example 2.2 was confirmed. Specifically, after treating 4 μg/ml Polymyxin B to the 96 well microplate row A, serial dilution was performed by ½ in rows B-G. Polymyxin was not treated to the row H. After treating 8 μg/ml Colistin to the 96 well microplate row A, a combination treatment group in which LNT102 endolysin 1 μM was further treated and a PBS treatment group in the same amount were made. All wells were treated with Pseudomonas aeruginosa and Escherichia coli in an amount of 1×10^5 CFU/ml, total 100 μl, respectively. After that, they were cultured at 37° C. for 18 hours.
(§2) The MIC change of the polymyxin-based antibiotics by combination treatment of the polymyxin-base antibiotics (polymyxin B, Colistin) at various concentrations and LNT102 endolysin was measured and shown in Table 5 below.

The test system of assay [1] is Pseudomonas aeruginosa PA01. Description: Galleria mellonella Pseudomonas aeruginosa infected model, viability. It counts as in vivo. The settings on record: PA01 50 CFU/larva; LNT101 0.6 or 6 μg/larva, Colistin 0.5 μg/larva; observation for 72 hours. The protocol:
The Pseudomonas aeruginosa killing ability of the endolysin LNT101 was also confirmed in vivo. As an animal model for the in vivo effectivity evaluation, Galleria mellonella was used. The Galleria mellonella model was divided into the healthy group (non-infection group), Pseudomonas aeruginosa infected group (drug non-administration group), 2 LNT101 administration groups in which LNT101 was administered into the infection model, Colistin administration group in which colistin was administered into the Pseudomonas aeruginosa infected model, and combination administration group in which LNT101 and colistin were administered in combination into the Pseudomonas aeruginosa infected model to progress an experiment, and 10 of Galleria mellonella per each group was used.
The Pseudomonas aeruginosa infected model was prepared by infecting Pseudomonas aeruginosa PA01 at the LD80 concentration, 50 CFU/larva, and LNT101 was administered at 0.6 μg/larva (3 mg/Kg) and 6 μg/larva (30 mg/Kg), respectively. Colistin was administered at 0.5 μg/larva (2.5 mg/Kg), and for administration in combination, Colistin at 0.5 μg/larva (2.5 mg/Kg) and LNT101 at 6 μg/larva (30 mg/Kg) were administered. […] In particular, in the LNT101 6 μg/larva (30 mg/Kg) administration group, the viability of 30% was confirmed.

A further assay has as its system E. coli(ATCC 8739). The assay is described as follows: MIC of polymyxin-based antibiotics with LNT102 (broth microdilution). It counts as cell-based. The settings on record: + PBS or + LNT102 endolysin 1 μM, 37° C. 18 hours. The protocol: as §1, §2
(Broth dilution looks for growth in wells or tubes with falling amounts of substance.)

Assay [2] concerns P. aeruginosa (ATCC 27853). The assay is described as above. It counts as cell-based. The note with it: + PBS or + LNT102 endolysin 1 μM, 37° C. 18 hours. The protocol: as §1, §2
The next assay concerns P. aeruginosa. The assay is described as follows: MIC of polymyxin-based antibiotics with LNT101 (broth microdilution). It counts as cell-based. The note with it: for reduction of MIC of the polymyxin-based antibiotic in combination with LNT101: LNT101 endolysin 1 μM; for MIC of antibiotics: P. aeruginosa 1×10^5 CFU/ml, 37° C. 18 hours, combination with LNT101 endolysin 1 μM, otherwise PBS. The protocol:
The synergy effect by treatment in combination of the polymyxin-based antibiotic having a mechanism acting on the cell membrane of bacterium and endolysin LNT101 was confirmed. Specifically, polymyxin B (32 μg/ml-0.03 μg/ml) and colistin (128 μg/ml-0.1 μg/ml) were diluted by ½ per well in a microplate, and then a LNT101 endolysin 1 μM combination treatment group and the same amount of PBS treatment group was made. In all wells, P. aeruginosa 1×10^5 CFU/ml was treated by total 100 μl. After that, they were cultured at 37° C. for 18 hours.
The MIC change of the polymyxin-based antibiotic by combination treatment of the polymyxin-based antibiotic (polymyxin B, Colistin) and LNT101 endolysin at various concentrations was confirmed, and shown in Table 3 below.

Assay [3] relates to A. baumannii (ATCC 19606). Description: MIC of polymyxin-based antibiotics with LNT102 (broth microdilution). It counts as cell-based. The settings on record: + PBS or + LNT102 endolysin 1 μM, 37° C. 18 hours.
For the next assay, the system named is gram negative bacterium. Description: CFU reduction evaluation on various gram negative bacterium. It counts as cell-based. The procedure:
For this, Endolysin LNT101 and LNT102 at a concentration of 2 μM and each 1×10^6 CFU of Pseudomonas aeruginosa (PA01; ATCC 15692), Acinetobacter baumannii (ATCC 17978), Escherichia coli (ATCC 8739), Klebsiella pneumoniae (ATCC 13883), Enterobacter aerogenes (CCARM 16006), and Salmonella enteritidis (ATCC 13076) was added in reaction buffer (20 mM Tris-Cl, pH 7.5) so that the final volume was 200 μl, and it was left at 37° C. for 2 hours. In 2 hours, the number of colonies of each gram negative bacterium was confirmed, and the result was shown in FIG. 8 (in FIG. 8, PA90 represents endolysin LNT101 and mtPA90 represents endolysin LNT102, respectively).
The endolysin LNT102 at a concentration of 0.1, 0.5, 2.5 μM, and each 1×10^6 CFU of Pseudomonas aeruginosa, Acinetobacter baumannii, and Escherichia coli was added in reaction buffer (20 mM Tris-Cl, pH 7.5) so that the final volume was 200 μl, and it was left at 37° C. for 2 hours.
In order to confirm the killing ability against gram negative bacterium of the fusion polypeptide LNT103 prepared in Example 3.2, CFU reduction evaluation was performed for various gram negative bacterium. In order to perform the CFU reduction evaluation, 2 μM of each of LNT101, LNT102, and LNT103 prepared in Example 3, and 1×10^6 CFU of each of Pseudomonas aeruginosa (PA01; ATCC 15692), Acinetobacter baumannii (ATCC 17978), Escherichia coli (ATCC 8739), Klebsiella pneumoniae (ATCC 13883), and Enterobacter aerogenes (CCARM 16006) were added to reaction buffer (20 mM Tris-Cl, pH7.5) so that the final volume was 200 μl, and it was left at 37° C. for 2 hours. After that, the number of the colonies of each gram negative bacterium was confirmed to compare and evaluate the antibiotic effect of each polypeptide. As a control group, the PBS treatment group (treating PBS in the same volume as the fusion polypeptide) was used.
In addition, the same test was performed by using the fusion polypeptide LNT103, and CecA-LNT101 at a concentration of 2 μM, and the result was shown in FIG. 15. For comparison, the same test was performed for groups treated with LNT102 or PBS.
On the other hand, in order to compare the antibacterial activity in case that a protein other than endolysin (LNT102 or LNT101) was fused to Cecropin A, the killing ability against gram negative bacterium of the fusion polypeptide LNT103 and cecropin A-EGFP fusion protein (a protein in which EGFP (GenBank Accession No. AAB02572.1) having no endolysin activity by replacing LNT102 in LNT103) was evaluated. For this, the proteins were treated in an amount of 0.2 μM or 2 μM, respectively, to perform the CFU reduction test. […] In particular, it could be confirmed that the CFU Counting result for all the tested gram negative bacterium killed all bacterium treated with 0, when LNT103 2 μM was treated.
Furthermore, the killing ability against gram negative bacterium according to the concentration and/or treatment time of the fusion polypeptide LNT103 was tested. Specifically, the fusion polypeptide LNT103 at a concentration of 0.1, 0.3, 0.9, or 2.7 μM and 1×10^6 CFU of Pseudomonas aeruginosa (PA01; ATCC 15692) or Acinetobacter baumannii (ATCC 19606) were added to reaction buffer (20 mM Tris-Cl, pH7.5) so that the final volume was 200 μl, and it was left at 37° C. for 2 hours, and then the number of the colonies was confirmed, and the result was shown in A of FIG. 17.
In addition, the fusion polypeptide LNT103 at a concentration of 2 μM and 1×10^6 CFU of Pseudomonas aeruginosa (PA01; ATCC 15692) were added to reaction buffer (20 mM pH7.5) so that the final volume was 200 μl, and in 0, 20 minutes, 40 minutes and 60 minutes at 37° C., the number of the colonies was confirmed, and the result was shown in B of FIG. 17. […]

Turning to Colistin, the “reduction of MIC of the polymyxin-based antibiotic in combination with LNT102” value in the assay on gram negative bacteria is “reduced by 1/16 times at maximum”. Further, the “viability of Galleria mellonella” value in assay [1] is on record as “the viability was increased”. The “MIC of the polymyxin-based antibiotic” value (in the assay with E. coli(ATCC 8739); in assay [2]; in assay [3]) was 2 µg/mL in each case. Moreover, the “reduction of MIC of the polymyxin-based antibiotic in combination with LNT101” value with P. aeruginosa is 50%. In addition, the MIC of antibiotics in the assay on P. aeruginosa was determined as 8 µg/mL.
Consider polymyxin B, for which the “reduction of MIC of the polymyxin-based antibiotic in combination with LNT102” value in the assay with gram negative bacteria is “reduced by 1/16 times at maximum”. Besides, the “MIC of the polymyxin-based antibiotic” value (in the assay on E. coli(ATCC 8739); in assay [2]; in assay [3]) was 0.5 µg/mL throughout. Also, the “reduction of MIC of the polymyxin-based antibiotic in combination with LNT101” value in the assay with P. aeruginosa is 50%. Further, the MIC of antibiotics with P. aeruginosa worked out at 4 µg/mL.

B1: CecA-LNT101: fusion polypeptide in which Cecropin A was fused to endolysin LNT101; SEQ ID NO: 16 used in the tests (protein)
chain: MASKWKLFKKIEKVGQNIRDGIIKAGPAVAVVGQATQIAKGSGSGSMGTVLKRGDRGSAVEDLQMKLRVAGYAVSADGIFGGDTEKAVRDFQASKALVVDGKVGPATLAELAKSATVPAKWEAIPFPTANKSRSAAMPTLNAVGAMTGTDSRLLATFASIESAFDYTVKASTSSATGWFQFLDATWDDMIKAHGSKYGIPKDPTRALRKDPRANALMGAEFLKGNAAVLRPVINREPSDTDLYLAHFLGAGGAKKFLSADQKTLGEVLFPKPAKANPSIFSNKGVPRTLAEIYKLFEDKVSKHRALEHHHHHH
modifications: synthetic_Fusion Polypeptide CecA-LNT101 with MAS, His tag, and extra sequence
As to B1, the counting result with gram negative bacterium (2 μM, all the tested bacterium (FIG. 15)) is listed as 0 log CFU/ml.

B2: LNT102: endolysin LNT101 variant with 15 amino acid mutations, SEQ ID NO: 6, purified with 6× His tag (protein)
chain: MGTVLKRGDRGSAVEDLQMKLNVAGYNLSADGIFGGDTEKAVRDVQAGAGLVVDGKVGPKTLYAIAKSATVPAKWEAIPFPTANKSRSAAMPTLNAVGAMTGVDSRLLATFASIESAFDYTVKAKTSSATGWFQFLDATWDDMIKAYGSKYGIPKDPTRALRKDPRANALMGAEFIKGNAAVLRPVINREPSDTDLYLAHFLGAGGAKKFLSADQKTLGEVLFPKPAKANPSIFSNKGVPRTLAEIYKLFEDKVSKHRA
modifications: 6xHis tag; synthetic_Endolysin LNT102
Regarding B2, the “killing ability (number of colonies)” value in the assay with gram negative bacterium (2 μM, 2 hours, 37° C., P. aeruginosa PA01, A. baumannii ATCC 17978, E. coli ATCC 8739, K. pneumoniae ATCC 13883, E. aerogenes CCARM 16006, S. enteritidis ATCC 13076) is “more excellent killing ability against gram negative bacterium in the same dose-, compared to LNT101”; in the assay on gram negative bacterium (0.1, 0.5, 2.5 μM, 30 minutes, 1 hour and 2 hours, Pseudomonas aeruginosa, Acinetobacter baumannii, Escherichia coli), “had the killing ability against gram negative bacterium in all the tested treatment doses and time”.
